Results reported in US11474106B2, “Methods for cytotoxic chemotherapy-based predictive assays” (ACCELERATED MEDICAL DIAGNOSTICS, INC., priority 2015, dated 2022).

Tests used:
PDX Model BL0645 = test: Drug-DNA adduct frequency in PDX tumor tissue by AMS; type: in vivo, NSG mice; conditions: 24 h
Description: (§1) Female NSG mice (5-8 weeks of age, body weight: 20 to 25 g) were obtained from Jackson Laboratories (CA, USA). All animals were kept under pathogen-free conditions and were allowed to acclimatize for at least 4 days prior to any experiments. PDX models bearing the indicated patient derived xenografts were created by subcutaneous injection at the flank of 1 mm^3 tumor tissue. To establish multiple PDXs to allow efficacy studies with multiple drugs, PDXs from passage 2-4 were minced into 1 mm^3 sections and injected subcutaneously into multiple mice. At least 3 mice were used for each treatment group. Tumors were allowed to grow to at about 100 mm^3 before being assessed for drug sensitivity or the induction of DNA adducts by the administration of a microdose or a therapeutic dose of labeled drug. To assess tumor response to chemotherapy, cisplatin was administered at 2 mg/kg IV every 7 days for a total of 3 cycles, or gemcitabine was administered at 150 mg/kg IP every 7 days for a total of 4 cycles. G/C combination chemotherapy consisted of the simultaneous administration of both drugs using the schema described above. Tumor growth was assessed by measuring palpable tumors with a caliper and calculating tumor volume. Drug-DNA adduct frequencies were measured in tumor tissue collected 24 hours after intravenous injection of labeled drug and stored at −80° C. until DNA isolation. DNA was isolated using a modified Wizard procedure (Promega), quantitated by spectrophotometry, and then stored frozen at −20° C. until AMS analysis. Ten micrograms of DNA per sample was converted to graphite and measured by AMS for 14C quantification as previously described.
(§2) NSG mice bearing the indicated PDX tumors were injected with a microdose of ^14C-labeled carboplatin (FIG. 22A) or ^14C-labeled gemcitabine (FIG. 22B). The microdose of ^14C-labeled carboplatin was 0.375 mg/kg carboplatin, 50,000 dpm/g. The microdose of ^14C-labeled gemcitabine was 0.092 mg/kg gemcitabine, 1000 dpm/g. The doses of each drug administered to the mice were chosen to target 1 μM in plasma concentration of carboplatin and 0.3 μM in plasma concentration of gemcitabine. These plasma concentrations represent 1% of the approximate peak plasma concentration during human chemotherapy. Animals were sacrificed after 24 h and drug-DNA adduct frequency was determined from collected tumor tissue by AMS measurements of ^14C in tumor DNA. Carboplatin DNA-adduct levels correlate with PDX model sensitivity to cisplatin at 24h after microdosing (FIG. 22A). […]
(§3) In this example we test whether gemcitabine/carboplatin (G/Carbo) combination therapy has an effect on the formation of drug-DNA adducts in this synergistic tumor model. […] Carboplatin-DNA monoadducts were measured in tumor tissue 24 h after dosing. […]

PDX Model BL0269 = test: as above; type: in vivo, NSG mice
Description: as §1, §2, §3

PDX Model BL0440 = test: as above; type: in vivo, NSG mice; conditions: microdose 0.092 mg/kg gemcitabine, 24 h
Description: as §1, with “To assess tumor response to chemotherapy, cisplatin was administered at 2 mg/kg IV every 7 days for a total of 3 cycles, or gemcitabine was administered at 150 mg/kg IP every 7 days for a total of 4 cycles. G/C combination chemotherapy consisted of the simultaneous administration of both drugs using the schema described above.” left out, “described. […]” for “described.”

PDX Model BL0293 = test: as above; type: in vivo, NSG mice; conditions: microdose 0.092 mg/kg gemcitabine, 24 h
Description: as §1, with “To assess tumor response to chemotherapy, cisplatin was administered at 2 mg/kg IV every 7 days for a total of 3 cycles, or gemcitabine was administered at 150 mg/kg IP every 7 days for a total of 4 cycles. G/C combination chemotherapy consisted of the simultaneous administration of both drugs using the schema described above.” left out, “described. […]” for “described.”

A549 = test: MTT assay (IC50); type: cell-based, human
Description: Six non-small cell lung cancer (NSCLC) cell lines were treated in culture with [^14C]carboplatin. Carboplatin-DNA monoadduct levels over time were determined by measuring ^14C content in genomic DNA with accelerator mass spectrometry (AMS). Cellular sensitivity to carboplatin and cisplatin was analyzed by the MTT assay (Henderson et al., International Journal of Cancer 2011).
Human NSCLC cell lines H23, H460, H727, HCC827, H1975, and A549 were purchased from ATCC and were cultured with the recommended medium. The MTT assay was performed as previously reported to determine the drug concentration required to inhibit cell growth by 50% (IC50) of cisplatin and carboplatin. [^14C]Carboplatin (at 53 mCi/mmol) was mixed with unlabeled carboplatin to achieve the specific activities required for microdoses and therapeutic doses. Table 1 lists the six NSCLC cell lines and summarizes their IC50 characteristics, induced carboplatin-DNA monoadducts when treated with [^14C]carboplatin, and p and r^2 values for correlation analysis to the IC50 concentrations.

5637 = test: MTT assay (IC50); type: cell-based, human
Description: Thus, we measured the IC50 of the six NSCLC cell lines from Example 2 to both cisplatin and carboplatin to determine if the sensitivity of these six NSCLC cell lines to the two drugs are correlated.
The cell lines were purchased from the American Type Culture Collection (ATCC, Manassas, Va.) and cultured in the recommended media.
Drug-DNA adduct formation and repair was measured by accelerator mass spectrometry.
These two cell lines were also cultured with a range of concentrations of cisplatin, carboplatin, gemcitabine, doxorubicin, methotrexate and vinblastine for 72 hours to determine IC50 for these other drugs (FIG. 16C). These drugs were chosen because of their frequent use in the treatment of bladder cancer.

SMILES | gemcitabine adduct level (PDX Model BL0645; BL0645, therapeutic dose gemcitabine 9.2 mg/kg, alone or with carboplatin 37.5 mg/kg) | gemcitabine adduct levels (PDX Model BL0645; BL0645 tumor DNA, microdose 0.092 mg/kg gemcitabine, alone or with carboplatin 0.375 mg/kg) | gemcitabine-DNA adduct levels (PDX Model BL0269; BL0269 control experiment (FIG. 23F), microdose gemcitabine 0.092 mg/kg, alone or with carboplatin 0.375 mg/kg) | gemcitabine adduct levels (PDX Model BL0269; BL0269 tumor DNA, microdose 0.092 mg/kg gemcitabine, 24 h (FIG. 22B)) | gemcitabine adduct levels (PDX Model BL0440) | gemcitabine adduct levels (PDX Model BL0293) | IC50 (A549) [nM] | IC50 (5637; 5637 (Table 2)) [nM] | IC50 (5637; 5637 (parental, Example 11), MTT, 72 hours) [nM]
Nc1ccn([C@@H]2O[C@H](CO)[C@@H](O)C2(F)F)[14c](=O)n1 [[^14C]gemcitabine, 2′-Deoxy-2′,2′-difluorocytidine, [cytosine-2-^14C]-] | 169.2±9.129 adducts per 10^8 nucleotides | 2.44±0.880 adducts per 10^8 nucleotides | 2.44±0.492 adducts per 10^8 nucleotides | 3.17±0.278 | 13.1±10.2 | 10.0±5.92 |  |  | 
N.N.[Cl][Pt][Cl] [cisplatin] |  |  |  |  |  |  | 26300 ± 9260 | 2430 ± 450 | 590
